In brackets after ≈: the same amount, converted by molar mass.
Key:
Pseudomonas aeruginosa [1] = assay: Antibacterial activity against Pseudomonas aeruginosa assessed as bacterial growth reduction; format: functional
Pseudomonas aeruginosa [2] = assay: Antibacterial activity against Pseudomonas aeruginosa assessed as bacterial growth inhibition; format: functional
[3] = tested on: Mycolicibacterium smegmatis; assay: Antibacterial activity against Mycobacterium smegmatis SANK75075 assessed as bacterial growth inhibition; format: functional
[4] = Cytotoxicity against human HepG2 cells assessed as reduction in cell viability incubated for 72 hrs by MTT assay; format: toxicity, cell-based
[5] = target: T1, Phospho-N-acetylmuramoyl-pentapeptide-transferase (Escherichia coli K-12, UniProt P0A6W3); assay: Inhibition of MraY in Escherichia coli K12
T1 sequence (P0A6W3 whole entry): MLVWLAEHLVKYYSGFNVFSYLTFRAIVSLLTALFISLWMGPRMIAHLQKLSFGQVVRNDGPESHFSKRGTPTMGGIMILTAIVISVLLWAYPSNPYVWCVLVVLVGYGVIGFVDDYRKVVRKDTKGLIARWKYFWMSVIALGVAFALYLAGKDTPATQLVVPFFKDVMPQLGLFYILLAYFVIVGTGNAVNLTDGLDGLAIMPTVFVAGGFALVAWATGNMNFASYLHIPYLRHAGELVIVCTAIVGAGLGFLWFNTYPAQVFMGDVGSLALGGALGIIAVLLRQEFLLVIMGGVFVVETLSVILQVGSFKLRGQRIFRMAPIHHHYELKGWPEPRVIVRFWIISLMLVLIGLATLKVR

Escherichia coli = assay: Antibacterial activity against Escherichia coli ATCC 25922 assessed as bacterial growth inhibition measured after 48 hrs by microdilution method; format: functional
Staphylococcus aureus = assay: Antibacterial activity against methicillin-resistant Staphylococcus aureus SR3637 assessed as reduction in bacterial growth inhibition; format: functional
Candida albicans = assay: Antifungal activity against Candida albicans SC5314 assessed as reduction in microbial growth inhibition incubated for 48 hrs by broth microdilution assay; format: functional
[6] = tested on: Cutaneotrichosporon cutaneum; assay: Antifungal activity against Trichosporon cutaneum 3071 assessed as reduction in microbial growth inhibition for 48 hrs by broth microdilution assay; format: functional
Cryptococcus neoformans = assay: Antifungal activity against Cryptococcus neoformans assessed as reduction in fungal growth; format: functional
Coccidioides immitis = assay: Antifungal activity against Coccidioides immitis assessed as reduction in fungal growth; format: functional

## C[C@@H]([C@H](NC(=O)[C@H](Cc1ccccc1)NC(=O)N[C@@H](Cc1c[nH]c2ccccc12)C(=O)O)C(=O)NCC1C[C@@H](O)[C@H](n2ccc(=O)[nH]c2=O)O1)N(C)C(=O)[C@@H](N)Cc1ccc(F)cc1 (stereo partly drawn)
Pseudomonas aeruginosa [1]
  MIC: 16 µg/mL (≈ 18.1 µM)

## CSCC[C@H](NC(=O)NC(Cc1cccc(O)c1)C(=O)O)C(=O)NC(CN(C)C(=O)[C@@H](N)C(Cc1cccc(O)c1)NCC(=O)O)C(=O)N/C=C1/C[C@@H](O)[C@H](N2CCC(=O)NC2=O)O1 (stereo partly drawn)
Pseudomonas aeruginosa [2]
  MIC: 1.5 µg/mL (≈ 1.64 µM)

## C[C@@H]([C@H](NC(=O)[C@H](Cc1ccccc1)NC(=O)N[C@@H](Cc1c[nH]c2ccccc12)C(=O)O)C(=O)NCC1C[C@@H](O)[C@H](n2ccc(=O)[nH]c2=O)O1)N(C)C(=O)[C@@H](N)Cc1ccc(O)cc1 (stereo partly drawn)
Pseudomonas aeruginosa [1]
  MIC: 16 µg/mL (≈ 18.1 µM)

## CCCCCCCCCCCNC(=O)C1=C[C@@H](O)[C@@H](O)[C@H](O[C@@H](C(N)=O)[C@H]2O[C@@H](n3ccc(=O)[nH]c3=O)[C@H](O)[C@@H]2OC)O1
[3]
  MIC: 12.5 µg/mL (≈ 20.4 µM)

## CCCCOc1ccc(-c2ccc(CC[C@@H](NC(=O)[C@@H](NC(=O)N[C@H](C(=O)O)C(C)C)[C@@H]3CCNC(=N)N3)C(=O)NCCCNC(C(=O)O)[C@H](O[C@@H]3O[C@H](CN)[C@@H](O)[C@H]3O)[C@H]3O[C@@H](n4ccc(=O)[nH]c4=O)[C@H](O)[C@@H]3O)cc2)cc1 (stereo partly drawn)
[4]
  IC50 at 72 h: > 100 µg/mL

## CC(C)C[C@@H](NC(=O)[C@@H](NC(=O)N[C@H](C(=O)O)C(C)C)[C@@H]1CCNC(=N)N1)C(=O)NCCCNC(C(=O)O)[C@H](O[C@@H]1O[C@H](CN)[C@@H](O)[C@H]1O)[C@H]1O[C@@H](n2ccc(=O)[nH]c2=O)[C@H](O)[C@@H]1O (stereo partly drawn)
[4]
  IC50 at 72 h: > 100 µg/mL

## CCCCCCCCCCCNC[C@@H](O[C@@H]1O[C@H](CN)[C@@H](O)[C@H]1O)[C@H]1O[C@@H](n2ccc(=O)[nH]c2=O)[C@H](O)[C@@H]1O
[5]
  IC50: 330 nM
Escherichia coli
  MIC: 2.5 µg/mL (≈ 4.47 µM)

## NC(=O)c1ncn([C@@H]2O[C@H](CO)[C@@H](O)[C@H]2O)n1 [RIBAVIRIN]
Pseudomonas aeruginosa [2]
  MIC: 3 µg/mL (≈ 12.3 µM)

## CCCCOc1ccc(-c2ccc(CC[C@H](NC(=O)[C@@H](NC(=O)N[C@H](C(=O)O)C(C)C)[C@@H]3CCNC(=N)N3)C(=O)NCCCNC(C(=O)O)[C@H](O[C@@H]3O[C@H](CN)[C@@H](O)[C@H]3O)[C@H]3O[C@@H](n4ccc(=O)[nH]c4=O)[C@H](O)[C@@H]3O)cc2)cc1 (stereo partly drawn)
[4]
  IC50 at 72 h: > 100 µg/mL

## CC(C)[C@H](NC(=O)N[C@H](C(=O)N[C@@H](CCCCCCCc1ccc(-c2ccccc2)cc1)C(=O)NCCCNC(C(=O)O)[C@H](O[C@@H]1O[C@H](CN)[C@@H](O)[C@H]1O)[C@H]1O[C@@H](n2ccc(=O)[nH]c2=O)[C@H](O)[C@@H]1O)[C@@H]1CCNC(=N)N1)C(=O)O (stereo partly drawn)
[4]
  IC50 at 72 h: > 100 µg/mL

## CO[C@H]1[C@@H](O)[C@H](n2ccc(=O)[nH]c2=O)O[C@@H]1[C@@H](O[C@@H]1OC(C(=O)Nc2ccccc2)=C[C@@H](O)[C@H]1O)C(N)=O
[3]
  MIC: 6.25 µg/mL (≈ 11.7 µM)

## CCCCCCCCCCCCCC(=O)NC[C@@H]1C[C@H]2[C@@H](C(=O)N1CCCNC(=N)N)[C@H]([C@H]1O[C@@H](n3ccc(=O)[nH]c3=O)[C@H](O)[C@@H]1O)ON2CCCN
Staphylococcus aureus
  MIC: 8 µg/mL (≈ 10.7 µM)

## CCCCCCCCCCCCCC[C@@H](NC(=O)C(C)CCCNC(=N)N)C(=O)NC[C@@H]1CC[C@H]2[C@@H](C(=O)N1)[C@H]([C@H]1O[C@@H](n3ccc(=O)[nH]c3=O)[C@H](O)[C@@H]1O)ON2CCCN (stereo partly drawn)
Staphylococcus aureus
  MIC: 8 µg/mL (≈ 9.27 µM)

## CO[C@H]1[C@@H](O)[C@H](n2ccc(=O)[nH]c2=O)O[C@@H]1[C@@H](O[C@@H]1OC(C(=O)NCCCSC)=C[C@@H](O)[C@H]1O)C(N)=O
[3]
  MIC: 12.5 µg/mL (≈ 22.9 µM)

## CCCCCCCCCCCCCC[C@@H](NC(=O)C(C)CCCNC(=N)N)C(=O)NC[C@@H]1C[C@H]2[C@@H](C(=O)N1)[C@H]([C@H]1O[C@@H](n3ccc(=O)[nH]c3=O)[C@H](O)[C@@H]1O)ON2CCCN (stereo partly drawn)
Staphylococcus aureus
  MIC: 8 µg/mL (≈ 9.42 µM)

## CCCCNC[C@@H](O[C@@H]1O[C@H](CN)[C@@H](O)[C@H]1O)[C@H]1O[C@@H](n2ccc(=O)[nH]c2=O)[C@H](O)[C@@H]1O
[5]
  IC50: 330 nM
Escherichia coli
  MIC: 2.5 µg/mL (≈ 5.43 µM)

## C/C=C1\CN(C(=O)[C@@H](NC(=O)[C@@H](N)[C@H](O)[C@@H](O)COC(N)=O)[C@H]2O[C@@H](n3cc(CO)c(=O)[nH]c3=O)[C@H](O)[C@@H]2O)[C@H]1C(=O)O
Candida albicans
  MIC: > 256 µg/mL
[6]
  MIC: 256 µg/mL

## CCCCCCCCCCCCCC[C@@H](NC(=O)C(C)CCCNC(=N)N)C(=O)NC[C@@H]1C[C@H]2[C@@H](C(=O)N1)[C@@H]([C@H]1O[C@@H](n3ccc(=O)[nH]c3=O)[C@H](O)[C@@H]1O)ON2CCCN (stereo partly drawn)
Staphylococcus aureus
  MIC: 8 µg/mL (≈ 9.42 µM)

## NC(=O)OC[C@H](O)[C@@H](O)[C@H](N)C(=O)N[C@H](C(=O)NC(CCC(=O)O)C(=O)O)[C@H]1O[C@@H](n2ccc(=O)[nH]c2=O)[C@H](O)[C@@H]1O (stereo partly drawn)
Candida albicans
  MIC: > 256 µg/mL
[6]
  MIC: 256 µg/mL

## N[C@@H](Cc1ccc(O)cc1)C(=O)N[C@H](C(=O)O)[C@@H]1C[C@@H](O)[C@@H](O)[C@H](n2ccc(=O)[nH]c2=O)O1
Cryptococcus neoformans
  MIC: 0.25 µg/mL (≈ 0.538 µM)
Coccidioides immitis
  MIC: 0.25 µg/mL (≈ 0.538 µM)

## CCCCCCCCCNC(=O)C1=C[C@@H](O)[C@@H](O)[C@H](O[C@@H](C(N)=O)[C@H]2O[C@@H](n3ccc(=O)[nH]c3=O)[C@H](O)[C@@H]2OC)O1
[3]
  MIC: 12.5 µg/mL (≈ 21.4 µM)

## C/C=C1\CN(C(=O)[C@@H](NC(=O)[C@@H](N)[C@H](O)[C@@H](O)COC(N)=O)[C@H]2O[C@@H](n3cc(C=O)[nH]c3=O)[C@H](O)[C@@H]2O)[C@H]1C(=O)O
Candida albicans
  MIC: > 256 µg/mL
[6]
  MIC: 0.5 µg/mL

## CCCCNC(=O)C1=C[C@@H](O)[C@@H](O)[C@H](O[C@@H](C(N)=O)[C@H]2O[C@@H](n3ccc(=O)[nH]c3=O)[C@H](O)[C@@H]2OC)O1
[3]
  MIC: 12.5 µg/mL (≈ 24.3 µM)

## N[C@@H](Cc1ccccc1)C(=O)N[C@H](C(=O)O)[C@@H]1C[C@@H](O)[C@@H](O)[C@H](n2ccc(=O)[nH]c2=O)O1
Cryptococcus neoformans
  MIC: 0.25 µg/mL (≈ 0.557 µM)
Coccidioides immitis
  MIC: 0.25 µg/mL (≈ 0.557 µM)

## CC(C)[C@H](NC(=O)N[C@H](C(=O)N[C@H](CCCCCCCc1ccc(-c2ccccc2)cc1)C(=O)NCCCNC(C(=O)O)[C@H](O[C@@H]1O[C@H](CN)[C@@H](O)[C@H]1O)[C@H]1O[C@@H](n2ccc(=O)[nH]c2=O)[C@H](O)[C@@H]1O)[C@@H]1CCNC(=N)N1)C(=O)O (stereo partly drawn)
[4]
  IC50 at 72 h: > 100 µg/mL

## CCCCCCCCCCCCCNC[C@@H](O[C@@H]1O[C@H](CN)[C@@H](O)[C@H]1O)[C@H]1O[C@@H](n2ccc(=O)[nH]c2=O)[C@H](O)[C@@H]1O
[5]
  IC50: 330 nM
Escherichia coli
  MIC: 2.5 µg/mL (≈ 4.26 µM)

## CCCCCCCCCNC[C@@H](O[C@@H]1O[C@H](CN)[C@@H](O)[C@H]1O)[C@H]1O[C@@H](n2ccc(=O)[nH]c2=O)[C@H](O)[C@@H]1O
[5]
  IC50: 330 nM
Escherichia coli
  MIC: 2.5 µg/mL (≈ 4.71 µM)

## CCCCCCCCCCCCCCC[C@H](NC(=O)[C@@H](NC(=O)N[C@H](C(=O)O)C(C)C)[C@@H]1CCNC(=N)N1)C(=O)NCCCNC(C(=O)O)[C@H](O[C@@H]1O[C@H](CN)[C@@H](O)[C@H]1O)[C@H]1O[C@@H](n2ccc(=O)[nH]c2=O)[C@H](O)[C@@H]1O (stereo partly drawn)
[4]
  IC50 at 72 h: > 100 µg/mL

## CC(C)C[C@H](NC(=O)N[C@@H](Cc1c[nH]c2ccccc12)C(=O)O)C(=O)N[C@H](C(=O)NC[C@H]1C[C@@H](O)[C@H](n2ccc(=O)[nH]c2=O)O1)[C@H](C)N(C)C(=O)CN
Pseudomonas aeruginosa [1]
  MIC: 4 µg/mL (≈ 5.39 µM)

## C[C@H](N)C(=O)N(C)[C@@H](C)[C@H](NC(=O)[C@H](Cc1ccccc1)NC(=O)N[C@@H](Cc1c[nH]c2ccccc12)C(=O)O)C(=O)NCC1C[C@@H](O)[C@H](n2ccc(=O)[nH]c2=O)O1 (stereo partly drawn)
Pseudomonas aeruginosa [1]
  MIC: 16 µg/mL (≈ 20.3 µM)

## NC(=O)OC[C@H](O)[C@@H](O)[C@H](N)C(=O)N[C@H](C(=O)NC(CCC(=O)O)C(=O)O)[C@H]1O[C@@H](n2cc(C=O)[nH]c2=O)[C@H](O)[C@@H]1O (stereo partly drawn)
Candida albicans
  MIC: > 256 µg/mL
[6]
  MIC: 256 µg/mL

## CC(C)C[C@H](NC(=O)N[C@@H](Cc1ccc(O)cc1)C(=O)O)C(=O)N[C@H](C(=O)NCC1C[C@@H](O)[C@H](n2ccc(=O)[nH]c2=O)O1)[C@H](C)N(C)C(=O)[C@H](C)N (stereo partly drawn)
Pseudomonas aeruginosa [1]
  MIC: 16 µg/mL (≈ 21.8 µM)

## C[C@@H]([C@H](NC(=O)[C@H](Cc1ccccc1)NC(=O)N[C@@H](Cc1c[nH]c2ccccc12)C(=O)O)C(=O)NC[C@H]1C[C@@H](O)[C@H](n2ccc(=O)[nH]c2=O)O1)N(C)C(=O)CN
Pseudomonas aeruginosa [1]
  MIC: 8 µg/mL (≈ 10.3 µM)

## CCCCCCCNC[C@@H](O[C@@H]1O[C@H](CN)[C@@H](O)[C@H]1O)[C@H]1O[C@@H](n2ccc(=O)[nH]c2=O)[C@H](O)[C@@H]1O
[5]
  IC50: 330 nM
Escherichia coli
  MIC: 2.5 µg/mL (≈ 4.97 µM)

## CSCC[C@H](N)C(=O)N[C@H](C(=O)O)[C@@H]1C[C@@H](O)[C@@H](O)[C@H](n2ccc(=O)[nH]c2=O)O1
Cryptococcus neoformans
  MIC: 0.25 µg/mL (≈ 0.578 µM)
Coccidioides immitis
  MIC: 0.25 µg/mL (≈ 0.578 µM)

## CCCCCCCCCCCCCC(=O)NC[C@@H]1C[C@H]2[C@@H](C(=O)N1CCCNC(=N)N)[C@@H]([C@H]1O[C@@H](n3ccc(=O)[nH]c3=O)[C@H](O)[C@@H]1O)ON2CCCN
Staphylococcus aureus
  MIC: 8 µg/mL (≈ 10.7 µM)
